The values below come from patent US20180153899A1, “PHARMACEUTICAL COMPOSITIONS” (Novartis AG, priority 2015, published 2018).

The nature of the data set: Clinical study, steady state PK (Cycle 1 Day 15) after daily oral tablets of example 1. The data set is classed as in vivo, human. As to conditions: for AUC(0-t) / Cmax / Tmax / half-life / AUC: human, in vivo; for Tmax: median (minimum-maximum); for half-life: read-out: T½ (converted). How it is done:
Non-small cell lung cancer patients with EGFR T790M mutation were enrolled in a clinical study and received escalating doses of EGF816 ranging from 100 mg to 225 mg daily oral doses by using the tablets as described in example 1.

The mark [1] stands for this setting: 150 mg qd (N = 6), geometric mean (CV %).
Where [2] appears, read: 200 mg qd (N = 7), geometric mean (CV %).
[3] abbreviates: 225 mg qd (N = 7), geometric mean (CV %).
Setting [4] is: 100 mg qd (N = 3), geometric mean (CV %).

In general, AUC(0-t) refers to exposure summed from dosing to a finite time, without extrapolation to infinity. Low readings indicate less exposure, high ones more exposure. The Cmax is the highest concentration seen after dosing. In general, Tmax refers to the time at which the peak concentration occurs. What is called AUC is concentration integrated over time. A low value points to low exposure.

Where two headings read alike, the source gives them in different places.

On to `Cc1cc(C(=O)Nc2nc3cccc(Cl)c3n2[C@@H]2CCCCN(C(=O)/C=C/CN(C)C)C2)ccn1` [EGF816, (R,E)-N-(7-chloro-1-(1-(4-(dimethylamino)but-2-enoyl)azepan-3-yl)-1H-benzo[d]imidazol-2-yl)-2-methylisonicotinamide], for which the CLss/F runs as follows: under setting [1], 238 (38) mL/min; under setting [2], 247 (58) mL/min; under setting [3], 222 (37) mL/min. Also, the AUC(0-t) came to 9050 ng·h/mL under setting [4], 10300 ng·h/mL under setting [1], 13500 ng·h/mL under setting [2] and 12100 ng·h/mL under setting [3]. Also, the Cmax turned out to be 519 ng/mL under setting [4], 675 ng/mL under setting [1], 939 ng/mL under setting [2] and 1270 ng/mL under setting [3]. Further, the time of peak concentration (Tmax) turned out to be 6 h (100 mg qd (N = 3)), 5 h (150 mg qd (N = 6)), 3 h (200 mg qd (N = 7)) and 3 h (225 mg qd (N = 7)). In addition, the half-life (100 mg qd (N = 3), only one value calculated) was 840 min; the half-life under setting [1] was 1020 min; the half-life under setting [2] was 780 min; the half-life under setting [3] is 600 min. Besides, the AUC by setting is: under setting [1], 10500 ng·h/mL; under setting [2], 13500 ng·h/mL; under setting [3], 16900 ng·h/mL.
